Consider 50 molecules from PubChem BioAssay AID1996.

Broadly, the solubility (kinetic) is the concentration staying in solution when a stock, usually in DMSO, is diluted into the medium.

Converted amounts (≈) assume the structure as drawn. Where only a bound is given, the exact number is not on record here.

For the data set the following is noted: buffer; pH 7.4; 200.0 µM.
Take `CC1(c2ccccc2)NC(=O)N(CC(=O)N2CCN(S(=O)(=O)c3c(F)cccc3F)CC2)C1=O` (stereo not given): the solubility (kinetic) was 25 µg/mL (≈ 50.8 µM).
For `CCCN(CCC)S(=O)(=O)c1ccc(C(=O)O)cc1` the value was > 42.8 µg/mL.
In the case of `O=C(NC(=S)Nc1ncccn1)c1ccccc1Br` it was 23.5 µg/mL (≈ 69.7 µM); in that of `Cc1cccn2c(=O)c(C(=O)NC3CCCCC3)c(O)nc12`, 5.4 µg/mL (≈ 17.9 µM).
`N#Cc1cccnc1Oc1ccccc1` gave a kinetic solubility of 25.3 µg/mL (≈ 129 µM).
For `CC1CCCCC12NC(=O)N(CC(=O)NCc1ccco1)C2=O` (stereo not given) the value was > 47.9 µg/mL; for `CC(NC(=O)COC(=O)c1cccc(S(=O)(=O)N2CCCC2)c1)c1ccccc1` (stereo not given), 11.8 µg/mL (≈ 28.3 µM); for `CCN(CC)C(C(=O)NC1CCCCC1)c1ccc(C)cc1` (stereo not given), > 45.4 µg/mL.
For `CC(C)N1CCN(Cc2nc3c(s2)CCCC3)CC1CCO` (stereo not given) the value was 41.4 µg/mL (≈ 128 µM).
In the case of `COc1cccc(-n2cc(-c3ccc(F)cc3)[nH]c2=S)c1` it was 2.4 µg/mL (≈ 7.99 µM); in that of `Cc1cc(NC(=O)CSCc2ccc([N+](=O)[O-])cc2)no1`, 24.6 µg/mL (≈ 80 µM); in that of `Cc1noc(NS(=O)(=O)c2ccc(NC(=O)c3ccccc3NS(=O)(=O)c3ccc(F)cc3)cc2)c1C`, > 81.7 µg/mL.
For `Cc1sc(NC(=O)c2c(F)cccc2F)nc1-c1ccccc1`, the kinetic solubility turned out to be 0.6 µg/mL (≈ 1.82 µM).
`O=C(CSc1nnc(NC(=O)c2c(F)cccc2F)s1)NC1CC1`: the solubility (kinetic) is > 55.6 µg/mL.
In the case of `Cc1cc(NC(=O)COC(=O)c2ccc(C)c(C)c2)no1` it was 3.7 µg/mL (≈ 12.8 µM); in that of `CN(C)C(=O)CN1CCN(Cc2nc(CC3CC3)no2)CC1`, > 46.1 µg/mL.
In the case of `Cc1cc(N2CCCC2)ccc1NC(=O)COc1ccc(Cl)cc1` it was 4.4 µg/mL (≈ 12.8 µM); in that of `CCOC(=O)C1CCCN(CC(O)COCc2ccccc2OC)C1` (stereo not given), > 52.7 µg/mL; in that of `O=C(Nc1cccc(NC(=O)c2ccc([N+](=O)[O-])o2)c1)c1ccco1`, 4.5 µg/mL (≈ 13.2 µM).
As to `CC(=O)Nc1ccc(NC(=O)c2cc([N+](=O)[O-])cc([N+](=O)[O-])c2)cc1`, the solubility (kinetic) was 7.9 µg/mL (≈ 22.9 µM).
In the case of `COC(=O)C1C(=O)c2c(C)noc2CC1(C)C` (stereo not given) it was > 35.6 µg/mL.
For `OC1CCN(Cc2ccc(OCc3ccccc3)cc2)CC1` the value was > 44.6 µg/mL; for `CCOCCn1c(SC(C)C(C)=O)nc2c1c(=O)[nH]c(=O)n2C` (stereo not given), > 51.1 µg/mL; for `COc1ccccc1NC(=O)CCN1C(=O)c2ccccc2S1(=O)=O`, > 54.1 µg/mL.
For `Fc1cccc(-c2csc(-c3ccno3)n2)c1` the value was 3.6 µg/mL (≈ 14.6 µM).
Molecule `Cc1ccc(S(=O)(=O)N2CCCCC2c2cccnc2)c(C)c1C` (stereo not given) displayed a kinetic solubility of 45.9 µg/mL (≈ 133 µM).
For `CCOC(=O)CCN1C(=O)c2ccccc2Sc2ncccc21` the value was > 49.3 µg/mL; for `COC(=O)c1ccccc1S(=O)(=O)N1CCC(C(=O)Nc2ccc(N3CCOCC3)cc2)CC1`, > 73.1 µg/mL.
In the case of `CCN1CCN(c2nnc(-c3ccccc3)c3ccccc23)CC1` it was > 47.8 µg/mL; in that of `FC(F)(F)c1cc(NC2CCCCC2)ccn1`, 28 µg/mL (≈ 115 µM).
For `O=C(Nc1ccc(Cl)c(Cl)c1)c1cccnc1` the value was > 40.1 µg/mL; for `CCOC(=O)c1c(C)[nH]c(C)c1C(=O)COC(=O)c1cccs1`, > 50.3 µg/mL.
Take `Cc1c(C(=O)Nc2ccc3c(c2)OCO3)oc2ccccc12`: the solubility (kinetic) stood at 2.9 µg/mL (≈ 9.82 µM).
The molecule `CCN(Cc1ccccc1)Cc1ccc(OCc2ccccc2)c(OC)c1` returned a kinetic solubility of 10.3 µg/mL (≈ 28.5 µM).
On to `CC(C)c1cc(=O)[nH]c(N2CCN(Cc3ccc4c(c3)OCO4)CC2)n1`, for which the solubility (kinetic) turned out to be 49.9 µg/mL (≈ 140 µM).
In the case of `Cn1c(=O)oc2cc(S(=O)(=O)N3CCc4ccccc43)ccc21` it was 0.5 µg/mL (≈ 1.51 µM); in that of `CCN(CC)C(=O)CN(C#N)c1nc(Cl)nc(N(C)C)n1`, 41.3 µg/mL (≈ 132 µM); in that of `CC(=O)NC(C(=O)N1CCC(c2nc3ccccc3s2)CC1)C(C)C` (stereo not given), 51.1 µg/mL (≈ 142 µM).
For `O=C1/C(=C/c2ccco2)SC(=S)N1CC1CCCO1` (stereo not given) the value was 6.6 µg/mL (≈ 22.3 µM); for `Cc1cccc(OCc2nnc(SC(C)C(=O)Nc3ccc(N4CCOCC4)cc3)o2)c1` (stereo not given), > 68.2 µg/mL.
In the case of `FC(F)(F)Sc1ccc(NC(=S)NCc2ccccc2)cc1` it was < 0.4 µg/mL; in that of `Cc1ccc(CS(=O)(=O)c2nc3c(c(N(C)C)n2)CCCC3)cc1`, 46 µg/mL (≈ 133 µM).
On to `O=c1[nH]cccc1-c1nc2ccccc2[nH]1`, for which the kinetic solubility was > 31.7 µg/mL.
For `CCc1c(C)nc(N)nc1N1N=C1SCCOc1ccccc1` the value was > 49.4 µg/mL.
In the case of `COc1ccc(OC(=O)C(C)N2C(=O)c3ccccc3C2=O)cc1` (stereo not given) it was 33.3 µg/mL (≈ 102 µM).
In the case of `CCN(C(=O)COc1ccc2ccc(=O)oc2c1)C1CCCCC1` it was > 49.4 µg/mL.
The molecule `CC(=O)Nc1sc(C)c(C)c1C(=O)OCC(=O)Nc1cccc(C)c1` yielded a solubility (kinetic) of 1.1 µg/mL (≈ 3.05 µM).
Regarding `Cc1cc(/C=C2\SC(=S)NC2=O)c(C)n1-c1ccccc1`, the solubility (kinetic) was determined as 3.3 µg/mL (≈ 10.5 µM).
For `Cc1cc(Cl)nc(NC(=O)Nc2cccc(Cl)c2)n1` the value was < 0.2 µg/mL; for `COc1cccc(NC(=O)Nc2ccc(Br)cn2)c1`, < 0.2 µg/mL.
